Data set [1] concerns WI-38 cells (AID negative). In words: Primary screening cell killing assay repeated in WI-38 cells (AID negative). The class given is cell-based. The note with it: Homo sapiens, 168 h, cell death on Day 7, Cell-Titer Glo. The essentials: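 Cell-killing counter-screen in AID-negative WI-38 cells, probing RAD51 inhibition via AID/RAD51 synthetic lethality. Viability luminescence (RLU) was media-subtracted, normalized to DMSO wells, and converted to percent kill (1 − normalized RLU) × 100; EC50 came from non-linear regression on a semi-log scale.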

Data set [2] in a line: Bi-directional Caco-2 permeability. It counts as in vitro ADME. The note with it: human; for efflux ratio at 90 min: Caco-2, read-out: BA/AB Ratio; for Papp A→B at 90 min: Caco-2, apical to basolateral, read-out: AB Papp (cm/sec × 10^6); for Papp A→B at 90 min / Papp B→A at 90 min: 37 C, up to 90 minutes; for Papp B→A at 90 min: Caco-2, basolateral to apical, read-out: BA Papp (cm/sec × 10^6). On the procedure: Bi-directional Caco-2 permeability was assayed. Caco-2 cells were seeded onto permeable polycarbonate supports and allowed to differentiate for about 3 weeks prior to being used in the assays. The cells were then exposed to the compounds from either the apical or basolateral sides and incubated at 37 C for up to 90 minutes under light agitation. Compound transport was then measured using LC/MS/MS analysis at 30, 60, and 90 minutes.
A general note: Passage across Caco-2 layers is used to estimate intestinal permeability.

For data set [3], the system named is Daudi cell line (AID positive). In words: Primary screening cell killing assay, Daudi cell line (AID positive). It counts as cell-based. The note with it: Homo sapiens, 168 h, cell death on Day 7, Cell-Titer Glo. The method in brief:
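AID-positive Daudi cells, 1250 per well, were exposed to serially diluted compounds for 7 days at 37° C. Viability read by CellTiter-Glo luminescence; percent cell death and EC50 derived against untreated wells after media-blank subtraction.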

Setting [4] is: Caco-2, Caco-2, AB direction, read-out: AB Recovery %.
Where [5] appears, read: Caco-2, Caco-2, BA direction, read-out: BA Recovery %.

Like-named read-outs stand apart in the source and are kept apart here. Bounds are passed on as bounds.

The EC50 is the concentration needed to bring the measured effect to its halfway point. High values mean weaker potency, low ones greater potency.

In turn, `CC(C)OC(=O)Nc1ccc(-c2cnc(C3CCC(NC(=O)OC4COC4)CC3)s2)c(S(=O)(=O)NC(C)(C)C)c1` (centres unmarked) [Ex. 48, oxetan-3-yl ((1r,4r)-4-(5-(2-(N-(tert-butyl)sulfamoyl)-4-((isopropoxycarbonyl)amino)phenyl)thiazol-2-yl)cyclohexyl)carbamate] displayed an EC50 in data set [1] above 1 µM. The recovery at 90 min in data set [2] (setting [4]) was 80.1%. Moreover, in data set [2] (setting [5]), the recovery at 90 min was 90.3%. Moreover, in data set [2], the efflux ratio at 90 min turned out to be 0.7, the Papp A→B at 90 min is 23.1 ×10⁻⁶ cm/s and the Papp B→A at 90 min was 16 ×10⁻⁶ cm/s. This compound gave a 50% effective concentration (EC50) in data set [3] of 0.1 to 1 µM.
Consider `C[C@@H](NC(=O)Nc1ccc(-c2cnc(C3CCC(NC(=O)OC4COC4)CC3)s2)c(S(=O)(=O)NC(C)(C)C)c1)c1ccccc1` (stereo partly drawn) [Ex. 52, oxetan-3-yl ((1R,4r)-4-(5-(2-(N-(tert-butyl)sulfamoyl)-4-(3-((R)-1-phenylethyl)ureido)phenyl)thiazol-2-yl)cyclohexyl)carbamate], for which the EC50 is above 1 µM in data set [1] and at most 0.1 µM in data set [3]. Further, the recovery at 90 min in data set [2] (setting [4]) was 64.1%; in data set [2] (setting [5]), 91.7%. Also, the efflux ratio at 90 min in data set [2] is 1.5. In data set [2], the Papp A→B at 90 min amounted to 7.4 ×10⁻⁶ cm/s. Besides, the Papp B→A at 90 min in data set [2] amounted to 10.9 ×10⁻⁶ cm/s.

The record behind these values is patent US10336746B1, “RAD51 inhibitors” (Cyteir Therapeutics, Inc., priority 2017, dated 2019).
